“Also recorded” adds a separate entry of the source.
Key:
[1] = system: non-injected dyspedic myotubes; experiment: Intracellular calcium signal (fluo-3) in non-injected dyspedic myotubes; format: cell-based, mice; details: 1 mM caffeine, n=0 out of 20 reacted
Excerpt: (§1) The cDNA insert was constructed from the following fragments: EcoRI(vector)/MroI(1232) obtained from IhBRR22, MroI(1232)/HindIII(2956) from IhBRR61, HindIII(2956)/BcII(3506) from IhBRR501, BcII(3506)/PmaCI(4750) from IhBRR51, PmaCI(4750)/PstI(7339) from IhBRR53, PstI(7339)/ClaI(9559) from IhBRR411, ClaI(9559)/SpeI(10569) from IhBRR79, SpeI(10569)/ApaI(11451) from IhBRR407, ApaI(11451)/EcoRI(11815) from IhBRR502, EcoRI(11815)/EcoRI(14861) from IhBRR91. The expression plasmid of the chimeric ryanodine receptor cDNA from human RyR3 and rabbit RyR2 was constructed as follows: the SalI(vector)/PmaCI(5038) fragment was rabbit RyR2 cDNA (Nakai, J. et al. FEBS Lett. 271 (1990), 169-177) and the PmaCI(4750)/NotI(vector) fragment from human RyR3-cDNA was ligated into the SalI/NotI cutting site of pCI-neo. Cultures of myotubes from RyR1-deficient (dyspedic) mice and cDNA injection are already known (Nakai, J. et al., Nature 380, (1996), 72-75). Changes in fluorescence (dimensionless random units) were measured after loading the myotubes with fluo-3 AM (Garcia, J., and Beam, K. G., J. Gen. Physiol. 103, (1994), 107-123). […] The washing solution used was normal Nager-Ringer solution of the following composition (mM): 145 NaCl, 5 KCl, 2 CaCl2, 1 MgCl2, 10 HEPES, pH 7.4 adjusted using NaOH. The temperature was 20-22° C.

[2] = system: H4 cells; experiment: Intracellular calcium (aequorin luminescence) in H4 cells; format: cell-based, human; details: H4 neuroglyoma cells
Protocol: (§2) The luminescence was determined using the method recently published (Maeda, A. et al., Anal. Biochem. 242, (1996), 58-66). To do this the cells (1×10^5 cells/vessel) were transferred into the solution of the calcium assay having the following composition (mM): 140 NaCl, 5 KCl, 1.5 MgCl2, 2.5 CaCl2, 5 glucose and 10 HEPES, pH 7.4 adjusted using NaOH, including […] of coelenterazine, the intermediate substrate of aequorine, and incubated for 6 hours at 37° C. The system for measuring luminescence consisted of the spectrofluorometer CAF-110 (Jasco) (Hakamata Y. et al., FEBS Lett. 352, (1994), 206-210), which is connected to a luminescence unit PL-03 (Jasco).
(§3) The total amount of aequorine activity was measured, after permeabilisation of the cells with digitonin, in a final concentration of […].

[3] = system: chimeric RyR from rabbit RyR2 and human RyR3; experiment: Intracellular calcium signal (fluo-3) in dyspedic myotubes injected with chimeric human RyR3 cDNA; format: cell-based; details: 1 mM caffeine, local injection; dyspedic myotubes expressing chimeric human RyR3; n=5 out of 20 reacted
Excerpt: as §1

[4] = system: U373 cells; experiment: Intracellular calcium (aequorin luminescence) in U373 cells; format: cell-based, human; details: for increase in intracellular calcium after addition of ryanodine: ryanodine 100 mM as printed, U373 cells, n=2 out of 4 react, 2 out of 4 do not react
Protocol: as §2, §3

Molecule | intracellular calcium signal as a reaction to caffeine [1] | increase in calcium after addition of caffeine ([2]; caffeine final concentration 10 mM) | intracellular calcium signal as a reaction to caffeine [3] | increase in intracellular calcium after addition of caffeine ([4]; caffeine final concentration 10 mM, U373 astrocytoma cells, n=7, listed as Caffeine) | increase in calcium after addition of ryanodine ([2]; ryanodine 100 mM [sic]) | increase in intracellular calcium after addition of ryanodine [4] | increase in intracellular calcium after addition of ryanodine ([4]; listed as Ryanodine)
Cn1c(=O)c2c(ncn2C)n(C)c1=O [caffeine] | do not react; also recorded: no reaction whatsoever | not to caffeine | reacts | no effect |  |  | 
ryanodine |  |  |  |  | reacted | reacted | triggers temporary calcium fluctuations
